Reference: EP2970215B1, “PYRROLIDINE DERIVATIVES, PHARMACEUTICAL COMPOSITIONS CONTAINING THEM, AND THEIR USE IN THERAPY” (AbbVie Deutschland GmbH & Co. KG, priority 2013, dated 2014)
pKi: −log10 of the molar value.

The molecules below were run against T1, human GlyT1c transporter (Homo sapiens, UniProt P48067) (assay: Radioligand binding assay using recombinant CHO cell membranes expressing human GlyT1). Details: radioligand binding to human GlyT1c transporter-expressing membranes.
T1 construct: expressed in transfected cells; host or cells: CHO cells (recombinant; line hGlyT1c_5_CHO is named for the uptake assay)
T1 sequence (P48067 1-706): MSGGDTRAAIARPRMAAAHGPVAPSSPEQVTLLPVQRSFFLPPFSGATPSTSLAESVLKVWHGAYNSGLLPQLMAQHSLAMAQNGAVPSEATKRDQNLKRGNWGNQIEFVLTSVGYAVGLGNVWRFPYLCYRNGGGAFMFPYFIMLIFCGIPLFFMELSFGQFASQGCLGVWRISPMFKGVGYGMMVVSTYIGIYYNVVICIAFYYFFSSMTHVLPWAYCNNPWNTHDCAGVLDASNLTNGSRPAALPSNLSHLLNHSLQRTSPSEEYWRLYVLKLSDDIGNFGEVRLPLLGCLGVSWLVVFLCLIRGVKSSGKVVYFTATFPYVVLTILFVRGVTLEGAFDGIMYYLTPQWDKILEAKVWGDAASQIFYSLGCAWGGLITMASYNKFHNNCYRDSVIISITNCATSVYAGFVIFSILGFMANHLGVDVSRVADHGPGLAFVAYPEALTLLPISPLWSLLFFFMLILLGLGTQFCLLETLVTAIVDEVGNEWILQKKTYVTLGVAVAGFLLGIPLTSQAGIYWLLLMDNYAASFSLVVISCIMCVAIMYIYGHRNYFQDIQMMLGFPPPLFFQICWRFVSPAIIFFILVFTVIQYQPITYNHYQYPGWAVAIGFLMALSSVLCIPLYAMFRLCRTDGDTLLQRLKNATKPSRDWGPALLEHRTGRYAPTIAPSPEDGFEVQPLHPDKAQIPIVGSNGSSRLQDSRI
Text: 2. Radioligand binding assays using recombinant CHO cell membranes expressing human GlyT1: […]

SMILES | pKi
Cn1cnc(S(=O)(=O)N2C[C@H](c3ccccc3)[C@H](NCc3ccccc3)C2)c1 (relative stereo) [Example 157, (cis)-N-benzyl-1-[(1-methyl-1H-imidazol-4-yl)sulfonyl]-4-phenylpyrrolidin-3-amine] | ≥ 5.00
Cn1cnc(S(=O)(=O)N2C[C@@H](Nc3ccc(F)c(Cl)c3)[C@H](c3ccc(F)cc3)C2)c1 (relative stereo) [Example 160, trans-N-(3-chloro-4-fluorophenyl)-4-(4-fluorophenyl)-1-[(1-methyl-1H-imidazol-4-yl)sulfonyl]pyrrolidin-3-amine] | ≥ 8.00
Cn1cnc(S(=O)(=O)N2C[C@@H](Nc3cccc(F)c3F)[C@H](c3ccc(F)cc3)C2)c1 (relative stereo) [Example 163, trans-N-(2,3-difluorophenyl)-4-(4-fluorophenyl)-1-[(1-methyl-1H-imidazol-4-yl)sulfonyl]pyrrolidin-3-amine] | ≥ 6.00
Cn1cnc(S(=O)(=O)N2C[C@@H](Nc3cc(F)ccc3F)[C@H](c3ccc(F)cc3)C2)c1 (relative stereo) [Example 164, trans-N-(2,5-difluorophenyl)-4-(4-fluorophenyl)-1-[(1-methyl-1H-imidazol-4-yl)sulfonyl]pyrrolidin-3-amine] | ≥ 5.00
Cn1cnc(S(=O)(=O)N2C[C@@H](Nc3ccc(F)c(F)c3F)[C@H](c3ccc(F)cc3)C2)c1 (relative stereo) [Example 166, trans-4-(4-fluorophenyl)-1-[(1-methyl-1H-imidazol-4-yl)sulfonyl]-N-(2,3,4-trifluorophenyl)pyrrolidin-3-amine] | ≥ 6.00
Cn1cnc(S(=O)(=O)N2C[C@@H](Nc3cc(C(F)(F)F)ccc3F)[C@H](c3ccc(F)cc3)C2)c1 (relative stereo) [Example 169, trans-4-(4-fluorophenyl)-N-[2-fluoro-5-(trifluoromethyl)phenyl]-1-[(1-methyl-1H-imidazol-4-yl)sulfonyl]pyrrolidin-3-amine] | ≥ 5.00
Cn1cnc(S(=O)(=O)N2C[C@@H](Nc3ccc(Cl)c(C(F)(F)F)c3)[C@H](c3ccc(F)cc3)C2)c1 (relative stereo) [Example 172, trans-N-[4-chloro-3-(trifluoromethyl)phenyl]-4-(4-fluorophenyl)-1-[(1-methyl-1H-imidazol-4-yl)sulfonyl]pyrrolidin-3-amine] | ≥ 7.00
Cn1cnc(S(=O)(=O)N2C[C@@H](Nc3ccc(C(F)(F)F)c(Cl)c3)[C@H](c3ccc(F)cc3)C2)c1 (relative stereo) [Example 173, trans-N-[3-chloro-4-(trifluoromethyl)phenyl]-4-(4-fluorophenyl)-1-[(1-methyl-1H-imidazol-4-yl)sulfonyl]pyrrolidin-3-amine] | ≥ 6.00
Cn1cnc(S(=O)(=O)N2C[C@@H](Nc3cc(F)cc(Cl)c3)[C@H](c3ccc(F)cc3)C2)c1 (relative stereo) [Example 174, trans-N-(3-chloro-5-fluorophenyl)-4-(4-fluorophenyl)-1-[(1-methyl-1H-imidazol-4-yl)sulfonyl]pyrrolidin-3-amine] | ≥ 6.00
Cn1cnc(S(=O)(=O)N2C[C@@H](Nc3cc(F)c(F)c(Cl)c3)[C@H](c3ccc(F)cc3)C2)c1 (relative stereo) [Example 175, trans-N-(3-chloro-4,5-difluorophenyl)-4-(4-fluorophenyl)-1-[(1-methyl-1H-imidazol-4-yl)sulfonyl]pyrrolidin-3-amine] | ≥ 6.00
Cn1cnc(S(=O)(=O)N2C[C@@H](Nc3ccncc3)[C@H](c3ccc(F)cc3)C2)c1 (relative stereo) [Example 177, N-{trans-4-(4-fluorophenyl)-1-[(1-methyl-1H-imidazol-4-yl)sulfonyl]pyrrolidin-3-yl}pyridin-4-amine] | ≥ 5.00
Cn1cnc(S(=O)(=O)N2C[C@@H](Nc3ccccn3)[C@H](c3ccc(F)cc3)C2)c1 (relative stereo) [Example 178, N-{trans-4-(4-fluorophenyl)-1-[(1-methyl-1H-imidazol-4-yl)sulfonyl]pyrrolidin-3-yl}pyridin-2-amine] | ≥ 6.00
Cn1cnc(S(=O)(=O)N2C[C@@H](Nc3cccnc3)[C@H](c3ccc(F)cc3)C2)c1 (relative stereo) [Example 179, N-{trans-4-(4-fluorophenyl)-1-[(1-methyl-1H-imidazol-4-yl)sulfonyl]pyrrolidin-3-yl}pyridin-3-amine] | ≥ 5.00
Cn1cnc(S(=O)(=O)N2C[C@@H](Nc3cccc(C(F)(F)F)n3)[C@H](c3ccc(F)cc3)C2)c1 (relative stereo) [Example 180, N-{trans-4-(4-fluorophenyl)-1-[(1-methyl-1H-imidazol-4-yl)sulfonyl]pyrrolidin-3-yl}-6-(trifluoromethyl)pyridin-2-amine] | ≥ 6.00
Cn1cnc(S(=O)(=O)N2C[C@H](c3ccccc3)[C@H](Nc3ccccc3)C2)c1 (relative stereo) [Example 184, (cis)-1-[(1-methyl-1H-imidazol-4-yl)sulfonyl]-N,4-diphenylpyrrolidin-3-amine] | ≥ 5.00
Cn1cnc(S(=O)(=O)N2C[C@@H](Nc3ccccc3)[C@H](c3cccc(F)c3)C2)c1 (relative stereo) [Example 185, trans-4-(3-fluorophenyl)-1-[(1-methyl-1H-imidazol-4-yl)sulfonyl]-N-phenylpyrrolidin-3-amine] | ≥ 5.00
Cn1cnc(S(=O)(=O)N2C[C@@H](Nc3cccc(F)c3)[C@H](c3cccc(F)c3)C2)c1 (relative stereo) [Example 186, trans-N,4-bis(3-fluorophenyl)-1-[(1-methyl-1H-imidazol-4-yl)sulfonyl]pyrrolidin-3-amine] | ≥ 6.00

The next lines start with the values.

pKi | SMILES
≥ 7.00 | Cc1ccc(CN[C@@H]2CN(S(=O)(=O)c3cn(C)cn3)C[C@H]2c2ccc(F)cc2)cc1 (relative stereo) [Example 155, trans-4-(4-fluorophenyl)-N-(4-methylbenzyl)-1-[(1-methyl-1H-imidazol-4-yl)sulfonyl]pyrrolidin-3-amine]
≥ 7.00 | Cn1cnc(S(=O)(=O)N2C[C@@H](NCc3ccc(F)cc3)[C@H](c3ccc(F)cc3)C2)c1 (relative stereo) [Example 156, trans-N-(4-fluorobenzyl)-4-(4-fluorophenyl)-1-[(1-methyl-1H-imidazol-4-yl)sulfonyl]pyrrolidin-3-amine]
≥ 7.00 | Cn1cnc(S(=O)(=O)N2C[C@@H](Nc3ccc(F)c(F)c3)[C@H](c3ccc(F)cc3)C2)c1 (relative stereo) [Example 158, trans-N-(3,4-difluorophenyl)-4-(4-fluorophenyl)-1-[(1-methyl-1H-imidazol-4-yl)sulfonyl]pyrrolidin-3-amine]
≥ 6.00 | Cn1cnc(S(=O)(=O)N2C[C@@H](Nc3ccc(Cl)c(Cl)c3)[C@H](c3ccc(F)cc3)C2)c1 (relative stereo) [Example 161, trans-N-(3,4-dichlorophenyl)-4-(4-fluorophenyl)-1-[(1-methyl-1H-imidazol-4-yl)sulfonyl]pyrrolidin-3-amine]
≥ 6.00 | Cn1cnc(S(=O)(=O)N2C[C@@H](Nc3ccc(Cl)c(F)c3)[C@H](c3ccc(F)cc3)C2)c1 (relative stereo) [Example 162, trans-N-(4-chloro-3-fluorophenyl)-4-(4-fluorophenyl)-1-[(1-methyl-1H-imidazol-4-yl)sulfonyl]pyrrolidin-3-amine]
≥ 6.00 | Cn1cnc(S(=O)(=O)N2C[C@@H](Nc3ccc(F)cc3F)[C@H](c3ccc(F)cc3)C2)c1 (relative stereo) [Example 165, trans-N-(2,4-difluorophenyl)-4-(4-fluorophenyl)-1-[(1-methyl-1H-imidazol-4-yl)sulfonyl]pyrrolidin-3-amine]
≥ 7.00 | Cn1cnc(S(=O)(=O)N2C[C@@H](Nc3cccc(C(F)(F)F)c3F)[C@H](c3ccc(F)cc3)C2)c1 (relative stereo) [Example 167, trans-4-(4-fluorophenyl)-N-[2-fluoro-3-(trifluoromethyl)phenyl]-1-[(1-methyl-1H-imidazol-4-yl)sulfonyl]pyrrolidin-3-amine]
≥ 7.00 | Cn1cnc(S(=O)(=O)N2C[C@@H](Nc3cc(F)cc(C(F)(F)F)c3)[C@H](c3ccc(F)cc3)C2)c1 (relative stereo) [Example 168, trans-4-(4-fluorophenyl)-N-[3-fluoro-5-(trifluoromethyl)phenyl]-1-[(1-methyl-1H-imidazol-4-yl)sulfonyl]pyrrolidin-3-amine]
≥ 7.00 | CC(C)c1cccc(N[C@@H]2CN(S(=O)(=O)c3cn(C)cn3)C[C@H]2c2ccc(F)cc2)c1 (relative stereo) [Example 170, trans-4-(4-fluorophenyl)-1-[(1-methyl-1H-imidazol-4-yl)sulfonyl]-N-[3-(propan-2-yl)phenyl]pyrrolidin-3-amine]
≥ 7.00 | Cn1cnc(S(=O)(=O)N2C[C@@H](Nc3cccc(C(C)(C)C)c3)[C@H](c3ccc(F)cc3)C2)c1 (relative stereo) [Example 171, trans-N-(3-tert-butylphenyl)-4-(4-fluorophenyl)-1-[(1-methyl-1H-imidazol-4-yl)sulfonyl]pyrrolidin-3-amine]
